Measurements taken from ChEMBL document CHEMBL4145674, “Discovery of 3-Benzyl-1-( trans-4-((5-cyanopyridin-2-yl)amino)cyclohexyl)-1-arylurea Derivatives as Novel and Selective Cyclin-Dependent Kinase 12 (CDK12) Inhibitors” (J Med Chem, 2018).

How the values were obtained:
CDK12/Cyclin K = CDK12/Cyclin K (Homo sapiens, UniProt Q9NYV4); assay: Inhibition of N-terminal FLAG-tagged human full-length CDK12 (1 to 1490 residues)/N-terminal His-tagged CycK (1 to 580 residues) expressed in Sf9 cells assessed as reduction in ATP-dependent ULight-4E-BP1 (Thr37/Thr46) substrate peptide phosphorylation pre-incubated for 60 mins by LANCE Ultra assay
CDK9/cyclin T1 = CDK9/cyclin T1 (Homo sapiens, UniProt P50750); type: protein-complex assay
Description: Inhibition of GST-tagged human CDK9/CycT1 (04 to 110 residues) assessed as reduction in ATP-dependent ULight-4E-BP1 (Thr37/Thr46) substrate peptide phosphorylation pre-incubated for 60 mins by LANCE Ultra assay

[1] = target: Cyclin-dependent kinase 12 (Homo sapiens, UniProt Q9NYV4); assay: Inhibition of CDK12 in human SK-BR-3 cells assessed as reduction in RNA polymerase 2 Ser2 phosphorylation incubated for 4 hrs by; type: cell-based
CDK7/Cyclin H/MNAT1 = CDK7/Cyclin H/MNAT1 (Homo sapiens, UniProt P50613)
Description: Inhibition of GST-tagged human GST-tagged CDK7/CycH/MAT1 (04 to 108 residues) using kinase tracer 236 probe incubated for 60 mins by TR-FRET assay

[2] = target: Cyclin-dependent kinase 13/Cyclin-K (Homo sapiens, UniProt Q14004); assay: Inhibition of N-terminal FLAG-tagged human full-length CDK13 (1 to 1512 residues)/N-terminal His-tagged CycK (1 to 580 residues) expressed in Sf9 cells assessed as reduction in ATP-dependent ULight-4E-BP1 (Thr37/Thr46) substrate peptide phosphorylation pre-incubated for 60 mins by LANCE Ultra assay
CDK8/Cyclin C = CDK8/Cyclin C (Homo sapiens, UniProt P49336); assay: Inhibition of GST-tagged human CDK8/CycC (04 to 109 residues) using kinase tracer 236 probe incubated for 60 mins by TR-FRET assay; type: protein-complex assay
CDK8/Cyclin C, sequence (P49336 whole entry, the tested form may be a part): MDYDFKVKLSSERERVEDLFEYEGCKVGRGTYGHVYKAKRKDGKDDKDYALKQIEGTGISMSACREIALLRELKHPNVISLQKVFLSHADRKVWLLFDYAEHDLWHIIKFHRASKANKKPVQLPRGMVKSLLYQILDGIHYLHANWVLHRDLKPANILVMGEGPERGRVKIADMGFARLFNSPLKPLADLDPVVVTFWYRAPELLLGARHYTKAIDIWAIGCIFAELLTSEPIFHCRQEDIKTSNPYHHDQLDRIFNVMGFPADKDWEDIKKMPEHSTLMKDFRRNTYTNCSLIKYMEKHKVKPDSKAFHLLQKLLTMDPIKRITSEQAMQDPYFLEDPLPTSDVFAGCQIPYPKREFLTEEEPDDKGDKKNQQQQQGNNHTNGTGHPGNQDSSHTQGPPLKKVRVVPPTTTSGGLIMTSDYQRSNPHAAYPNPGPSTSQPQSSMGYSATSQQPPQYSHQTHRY
CDK8/Cyclin C, sequence (P24863 whole entry, further chain, the tested form may be a part): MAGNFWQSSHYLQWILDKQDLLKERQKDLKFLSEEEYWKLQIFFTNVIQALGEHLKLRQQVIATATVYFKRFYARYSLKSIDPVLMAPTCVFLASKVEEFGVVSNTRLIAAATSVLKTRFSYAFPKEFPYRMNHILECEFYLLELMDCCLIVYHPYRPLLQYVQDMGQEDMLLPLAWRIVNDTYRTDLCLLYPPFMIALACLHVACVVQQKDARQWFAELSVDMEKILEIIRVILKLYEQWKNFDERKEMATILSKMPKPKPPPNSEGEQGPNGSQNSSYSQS

CDK7/Cyclin H/MNAT1, sequence (P51946 whole entry, the tested form may be a part): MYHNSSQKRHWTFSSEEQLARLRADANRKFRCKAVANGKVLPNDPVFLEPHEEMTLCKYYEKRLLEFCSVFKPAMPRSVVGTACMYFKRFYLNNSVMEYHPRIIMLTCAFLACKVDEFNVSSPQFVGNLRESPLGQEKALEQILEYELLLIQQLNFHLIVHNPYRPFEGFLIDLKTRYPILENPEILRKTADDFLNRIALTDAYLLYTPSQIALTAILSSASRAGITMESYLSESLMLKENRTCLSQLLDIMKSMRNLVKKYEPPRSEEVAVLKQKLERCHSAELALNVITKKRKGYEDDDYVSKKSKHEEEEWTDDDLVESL
CDK7/Cyclin H/MNAT1, sequence (P50613 whole entry, the tested form may be a part): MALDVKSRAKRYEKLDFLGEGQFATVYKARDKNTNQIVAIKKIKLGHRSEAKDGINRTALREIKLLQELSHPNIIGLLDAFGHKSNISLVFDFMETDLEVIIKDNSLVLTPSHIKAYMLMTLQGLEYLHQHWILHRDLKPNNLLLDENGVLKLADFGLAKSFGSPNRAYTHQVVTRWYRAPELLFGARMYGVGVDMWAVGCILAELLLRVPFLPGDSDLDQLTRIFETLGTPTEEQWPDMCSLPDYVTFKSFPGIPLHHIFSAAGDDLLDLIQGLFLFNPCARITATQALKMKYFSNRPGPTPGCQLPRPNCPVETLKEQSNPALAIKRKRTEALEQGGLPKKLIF
CDK7/Cyclin H/MNAT1, sequence (P51948 whole entry, further chain, the tested form may be a part): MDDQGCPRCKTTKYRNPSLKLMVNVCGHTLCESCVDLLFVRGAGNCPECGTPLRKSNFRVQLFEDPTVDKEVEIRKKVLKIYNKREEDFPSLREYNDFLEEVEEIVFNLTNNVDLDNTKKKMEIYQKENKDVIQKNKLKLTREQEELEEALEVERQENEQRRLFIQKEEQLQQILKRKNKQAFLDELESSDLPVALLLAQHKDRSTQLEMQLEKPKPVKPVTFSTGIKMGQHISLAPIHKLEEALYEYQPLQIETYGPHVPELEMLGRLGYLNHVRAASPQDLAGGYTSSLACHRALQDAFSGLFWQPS
CDK9/cyclin T1, sequence (O60563 whole entry): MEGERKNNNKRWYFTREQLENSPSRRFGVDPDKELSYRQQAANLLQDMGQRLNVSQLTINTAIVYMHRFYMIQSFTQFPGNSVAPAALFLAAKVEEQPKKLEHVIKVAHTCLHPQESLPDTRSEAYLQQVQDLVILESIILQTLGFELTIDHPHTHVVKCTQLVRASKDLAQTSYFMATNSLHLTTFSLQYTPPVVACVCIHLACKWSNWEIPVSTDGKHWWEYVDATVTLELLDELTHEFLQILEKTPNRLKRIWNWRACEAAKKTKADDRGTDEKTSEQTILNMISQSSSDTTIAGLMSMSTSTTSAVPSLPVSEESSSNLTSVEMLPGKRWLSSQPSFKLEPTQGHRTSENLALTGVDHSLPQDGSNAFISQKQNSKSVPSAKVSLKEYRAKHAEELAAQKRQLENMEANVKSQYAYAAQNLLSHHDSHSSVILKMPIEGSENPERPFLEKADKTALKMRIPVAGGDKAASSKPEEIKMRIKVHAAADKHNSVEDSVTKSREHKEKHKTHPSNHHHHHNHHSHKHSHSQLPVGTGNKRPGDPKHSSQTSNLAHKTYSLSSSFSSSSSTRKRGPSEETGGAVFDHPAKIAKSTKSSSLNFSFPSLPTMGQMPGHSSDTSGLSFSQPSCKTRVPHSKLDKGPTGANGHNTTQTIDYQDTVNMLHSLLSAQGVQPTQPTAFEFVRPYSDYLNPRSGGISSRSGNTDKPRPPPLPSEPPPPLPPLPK
CDK9/cyclin T1, sequence (P50750 whole entry): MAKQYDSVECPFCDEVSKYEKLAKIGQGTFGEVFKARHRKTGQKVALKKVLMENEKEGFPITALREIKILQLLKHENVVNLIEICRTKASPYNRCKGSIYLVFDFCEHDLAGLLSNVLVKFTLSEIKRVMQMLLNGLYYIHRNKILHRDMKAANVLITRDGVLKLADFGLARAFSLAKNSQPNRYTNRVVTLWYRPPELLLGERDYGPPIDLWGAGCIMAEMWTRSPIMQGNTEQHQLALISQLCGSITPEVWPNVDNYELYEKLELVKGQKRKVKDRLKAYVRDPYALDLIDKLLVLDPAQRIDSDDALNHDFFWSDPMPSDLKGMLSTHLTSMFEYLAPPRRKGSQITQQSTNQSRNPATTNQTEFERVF
CDK12/Cyclin K, sequence (O75909 whole entry, the tested form may be a part): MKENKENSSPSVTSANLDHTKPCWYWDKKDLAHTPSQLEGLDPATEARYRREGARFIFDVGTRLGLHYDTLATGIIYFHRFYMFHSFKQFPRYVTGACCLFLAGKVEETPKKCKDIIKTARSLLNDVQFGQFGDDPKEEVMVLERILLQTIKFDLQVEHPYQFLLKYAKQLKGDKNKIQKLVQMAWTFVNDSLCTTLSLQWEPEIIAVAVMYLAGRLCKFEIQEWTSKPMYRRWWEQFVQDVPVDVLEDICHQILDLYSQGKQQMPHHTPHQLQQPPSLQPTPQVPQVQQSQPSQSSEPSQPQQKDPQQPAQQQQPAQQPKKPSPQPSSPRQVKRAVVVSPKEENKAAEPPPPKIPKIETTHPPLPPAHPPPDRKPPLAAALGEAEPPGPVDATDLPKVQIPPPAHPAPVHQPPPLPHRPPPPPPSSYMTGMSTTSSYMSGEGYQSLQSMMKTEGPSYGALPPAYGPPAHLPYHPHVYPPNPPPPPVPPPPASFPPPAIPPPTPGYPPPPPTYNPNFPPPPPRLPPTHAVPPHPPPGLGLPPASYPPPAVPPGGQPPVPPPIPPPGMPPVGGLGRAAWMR
CDK12/Cyclin K, sequence (Q9NYV4 whole entry, the tested form may be a part): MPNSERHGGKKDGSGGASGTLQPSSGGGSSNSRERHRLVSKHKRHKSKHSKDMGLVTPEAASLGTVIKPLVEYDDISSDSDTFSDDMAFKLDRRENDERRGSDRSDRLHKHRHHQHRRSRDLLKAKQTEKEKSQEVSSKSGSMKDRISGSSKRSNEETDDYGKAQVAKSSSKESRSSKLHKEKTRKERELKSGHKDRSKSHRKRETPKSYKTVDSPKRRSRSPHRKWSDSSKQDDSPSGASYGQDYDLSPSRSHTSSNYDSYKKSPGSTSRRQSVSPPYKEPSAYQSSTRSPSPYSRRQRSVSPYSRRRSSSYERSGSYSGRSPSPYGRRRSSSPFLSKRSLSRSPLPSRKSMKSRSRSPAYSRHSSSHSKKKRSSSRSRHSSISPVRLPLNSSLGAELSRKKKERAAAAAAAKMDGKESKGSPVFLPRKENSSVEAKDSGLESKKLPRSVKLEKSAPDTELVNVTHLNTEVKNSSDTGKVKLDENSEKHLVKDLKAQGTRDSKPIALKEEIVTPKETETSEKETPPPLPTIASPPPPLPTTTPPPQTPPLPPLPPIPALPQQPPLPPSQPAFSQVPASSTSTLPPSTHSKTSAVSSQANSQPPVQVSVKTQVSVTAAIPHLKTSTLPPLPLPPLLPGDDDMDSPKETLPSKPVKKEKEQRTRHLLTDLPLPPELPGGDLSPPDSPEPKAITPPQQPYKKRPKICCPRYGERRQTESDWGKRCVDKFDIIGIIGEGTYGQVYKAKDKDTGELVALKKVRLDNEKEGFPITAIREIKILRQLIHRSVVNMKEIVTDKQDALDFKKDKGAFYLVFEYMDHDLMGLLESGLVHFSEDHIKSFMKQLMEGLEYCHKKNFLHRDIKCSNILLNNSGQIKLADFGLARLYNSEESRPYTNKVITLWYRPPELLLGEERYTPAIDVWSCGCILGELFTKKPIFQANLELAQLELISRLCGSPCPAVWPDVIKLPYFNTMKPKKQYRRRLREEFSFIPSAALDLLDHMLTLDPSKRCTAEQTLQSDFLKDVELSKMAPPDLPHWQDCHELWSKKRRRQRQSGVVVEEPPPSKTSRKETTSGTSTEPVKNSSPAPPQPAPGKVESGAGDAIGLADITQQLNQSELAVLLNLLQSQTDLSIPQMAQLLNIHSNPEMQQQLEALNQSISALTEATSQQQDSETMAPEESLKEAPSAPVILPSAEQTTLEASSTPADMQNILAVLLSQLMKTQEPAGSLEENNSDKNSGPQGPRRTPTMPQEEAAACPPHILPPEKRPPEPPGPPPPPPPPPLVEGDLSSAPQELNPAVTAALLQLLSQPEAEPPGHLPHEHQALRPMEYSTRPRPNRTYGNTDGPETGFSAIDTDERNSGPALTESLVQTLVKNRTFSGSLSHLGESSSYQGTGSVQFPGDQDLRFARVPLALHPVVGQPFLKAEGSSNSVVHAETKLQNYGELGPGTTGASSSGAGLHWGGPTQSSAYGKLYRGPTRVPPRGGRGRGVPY
Cyclin-dependent kinase 12, sequence (Q9NYV4 whole entry): as the sequence (Q9NYV4 whole entry, the tested form may be a part) above

| IC50 (CDK12/Cyclin K) [nM] | IC50 (CDK9/cyclin T1) [nM] | IC50 [1] [nM] | IC50 (CDK7/Cyclin H/MNAT1) [nM] | IC50 [2] [nM] | IC50 (CDK8/Cyclin C) [nM] | SMILES |
| --- | --- | --- | --- | --- | --- | --- |
| 110 | 220 | 259 | 1200 | – | – | CC(C)C(=O)OC[C@@H]1O[C@@H](n2cnc(N)c3c(C(N)=O)c(Br)nc2-3)[C@@H](O)[C@@H]1O |
| > 30000 | > 30000 | – | > 10000 | > 10000 | > 10000 | Cn1cc(-c2ccc(N(C(=O)NCc3ccccc3)[C@H]3CC[C@@H](Nc4ccc(C#N)cn4)CC3)cc2)cn1 |
